Data reported in patent US8461083B2, “Herbicidal compounds” (Syngenta Limited, priority 2008, dated 2013).

What was measured:
Format in all cases: in vivo
[1] = test system: Echinochloa crus-galli (ECHCG); assay: Pre-emergence herbicidal glasshouse test; conditions: pre-emergence (sprayed after one day cultivation), evaluated after 13 days, 100=total damage to plant, 0=no damage to plant; for pest or weed control at 1000 g/ha: Echinochloa crus-galli, 312 h, read-out: PRE Application ECHCG, damage to plant; for PRE Application ECHCG, damage to plant: 1000 g/ha
Description: (§1) Seeds of a variety of test species were sown in standard soil in pots (Alopecurus myosuroides (ALOMY), Setaria faberi (SETFA), Echinochloa crus-galli (ECHCG), Solanum nigrum (SOLNI) and Amaranthus retoflexus (AMARE)). After cultivation for one day (pre-emergence) or after 8 days cultivation (post-emergence) under controlled conditions in a glasshouse (at 24/16° C., day/night; 14 hours light; 65% humidity), the plants were sprayed with an aqueous spray solution derived from the formulation of the technical active ingredient in acetone/water (50:50) solution containing 0.5% Tween 20 (polyoxyethelyene sorbitan monolaurate, CAS RN 9005-64-5). Compounds were applied at 1000 g/ha. The test plants were then grown in a glasshouse under controlled conditions in a glasshouse (at 24/16° C., day/night; 14 hours light; 65% humidity) and watered twice daily. After 13 days for pre and post-emergence, the test was evaluated (100=total damage to plant; 0=no damage to plant).

Setaria faberi (SETFA) [2] = assay: Pre-emergence herbicidal glasshouse test; conditions: pre-emergence (sprayed after one day cultivation), evaluated after 13 days, 100=total damage to plant, 0=no damage to plant; for pest or weed control at 1000 g/ha: Setaria faberi, 312 h, read-out: PRE Application SETFA, damage to plant; for PRE Application SETFA, damage to plant: 1000 g/ha
Description: as §1

[3] = test system: Alopecurus myosuroides (ALOMY); assay: Pre-emergence herbicidal glasshouse test; conditions: pre-emergence (sprayed after one day cultivation), evaluated after 13 days, 100=total damage to plant, 0=no damage to plant; for pest or weed control at 1000 g/ha: Alopecurus myosuroides, 312 h, read-out: PRE Application ALOMY, damage to plant; for PRE Application ALOMY, damage to plant: 1000 g/ha
Description: as §1

[4] = test system: Amaranthus retoflexus (AMARE); assay: Pre-emergence herbicidal glasshouse test; conditions: pre-emergence (sprayed after one day cultivation), evaluated after 13 days, 100=total damage to plant, 0=no damage to plant; for pest or weed control at 1000 g/ha: Amaranthus retroflexus, 312 h, read-out: PRE Application AMARE, damage to plant; for PRE Application AMARE, damage to plant: 1000 g/ha
Description: as §1

Solanum nigrum (SOLNI) [5] = assay: Pre-emergence herbicidal glasshouse test; conditions: pre-emergence (sprayed after one day cultivation), evaluated after 13 days, 100=total damage to plant, 0=no damage to plant; for pest or weed control at 1000 g/ha: Solanum nigrum, 312 h, read-out: PRE Application SOLNI, damage to plant; for PRE Application SOLNI, damage to plant: 1000 g/ha
Description: as §1

[6] = test system: Echinochloa crus-galli (ECHCG); assay: Post-emergence herbicidal glasshouse test; conditions: post-emergence (sprayed after 8 days cultivation), evaluated after 13 days, 100=total damage to plant, 0=no damage to plant; for pest or weed control at 1000 g/ha: Echinochloa crus-galli, 312 h, read-out: POST Application ECHCG, damage to plant; for POST Application ECHCG, damage to plant: 1000 g/ha
Description: as §1

Setaria faberi (SETFA) [7] = assay: Post-emergence herbicidal glasshouse test; conditions: post-emergence (sprayed after 8 days cultivation), evaluated after 13 days, 100=total damage to plant, 0=no damage to plant; for pest or weed control at 1000 g/ha: Setaria faberi, 312 h, read-out: POST Application SETFA, damage to plant; for POST Application SETFA, damage to plant: 1000 g/ha
Description: as §1

[8] = test system: Alopecurus myosuroides (ALOMY); assay: Post-emergence herbicidal glasshouse test; conditions: post-emergence (sprayed after 8 days cultivation), evaluated after 13 days, 100=total damage to plant, 0=no damage to plant; for pest or weed control at 1000 g/ha: Alopecurus myosuroides, 312 h, read-out: POST Application ALOMY, damage to plant; for POST Application ALOMY, damage to plant: 1000 g/ha
Description: as §1

[9] = test system: Amaranthus retoflexus (AMARE); assay: Post-emergence herbicidal glasshouse test; conditions: post-emergence (sprayed after 8 days cultivation), evaluated after 13 days, 100=total damage to plant, 0=no damage to plant; for pest or weed control at 1000 g/ha: Amaranthus retroflexus, 312 h, read-out: POST Application AMARE, damage to plant; for POST Application AMARE, damage to plant: 1000 g/ha
Description: as §1

Solanum nigrum (SOLNI) [10] = assay: Post-emergence herbicidal glasshouse test; conditions: post-emergence (sprayed after 8 days cultivation), evaluated after 13 days, 100=total damage to plant, 0=no damage to plant; for pest or weed control at 1000 g/ha: Solanum nigrum, 312 h, read-out: POST Application SOLNI, damage to plant; for POST Application SOLNI, damage to plant: 1000 g/ha
Description: as §1

| Compound | pest or weed control at 1000 g/ha [1] | pest or weed control at 1000 g/ha (Setaria faberi (SETFA) [2]) | pest or weed control at 1000 g/ha [3] | pest or weed control at 1000 g/ha [4] | pest or weed control at 1000 g/ha (Solanum nigrum (SOLNI) [5]) | pest or weed control at 1000 g/ha [6] | pest or weed control at 1000 g/ha (Setaria faberi (SETFA) [7]) | pest or weed control at 1000 g/ha [8] | pest or weed control at 1000 g/ha [9] | pest or weed control at 1000 g/ha (Solanum nigrum (SOLNI) [10]) | PRE Application ECHCG, damage to plant [1] | PRE Application SETFA, damage to plant (Setaria faberi (SETFA) [2]) | PRE Application ALOMY, damage to plant [3] | PRE Application AMARE, damage to plant [4] | PRE Application SOLNI, damage to plant (Solanum nigrum (SOLNI) [5]) | POST Application ECHCG, damage to plant [6] | POST Application SETFA, damage to plant (Setaria faberi (SETFA) [7]) | POST Application ALOMY, damage to plant [8] | POST Application AMARE, damage to plant [9] | POST Application SOLNI, damage to plant (Solanum nigrum (SOLNI) [10]) |
| --- | --- | --- | --- | --- | --- | --- | --- | --- | --- | --- | --- | --- | --- | --- | --- | --- | --- | --- | --- | --- |
| CCc1nc2nc(C(F)(F)F)ccc2cc1C(=O)C1C(=O)CCCC1=O [Compound 1.107, 2-[2-ethyl-7-trifluoromethyl-[1,8]-naphthyridine-3-carbony]-cyclohexane-1,3-dione] | 100% | 100% | 30% | 100% | 90% | 80% | 90% | 50% | 100% | 100% | – | – | – | – | – | – | – | – | – | – |
| CC(F)c1ccc2cc(C(=O)C3C(=O)CCCC3=O)c(C(F)(F)F)nc2n1 (stereo not drawn) [Compound 1.35, 2-[7-(1-fluoroethyl)-2-trifluoromethyl-[1,8]-naphthyridine-3-carbony]-cyclohexane-1,3-dione] | – | – | – | – | – | – | – | – | – | – | 100 | 100 | 70 | 100 | 100 | 90 | 90 | 90 | 100 | 90 |
| O=C1CCCC(=O)C1C(=O)c1cc2ccc(CF)nc2nc1C(F)(F)F [Compound 1.11] | 100% | 100% | 60% | 80% | 100% | 90% | 90% | 70% | 100% | 100% | – | – | – | – | – | – | – | – | – | – |
| COCCN(C)c1nc2nc(C(F)(F)F)c(C(=O)C3C(=O)CCCC3=O)cc2cc1F [Compound 1.80, 2-[6-fluoro-7-(2-methoxyethylmethylamino)-2-trifluoromethyl-[1,8]-naphthyridine-3-carbony]-cyclohexane-1,3-dione] | – | – | – | – | – | – | – | – | – | – | 100 | 100 | 80 | 100 | 100 | 90 | 80 | 80 | 80 | 80 |
| C/C=C/c1nc2nc(C(F)(F)F)c(C(=O)C3C(=O)CCCC3=O)cc2cc1F [Compound 1.72, 2-(6-fluoro-7-[(E)(prop-1-enyl)]-2-trifluoromethyl-[1,8]-naphthyridine-3-carbony)-cyclohexane-1,3-dione] | – | – | – | – | – | – | – | – | – | – | 90 | 90 | 30 | 60 | 90 | 70 | 80 | 50 | 70 | 60 |
| CCN(C)c1nc2nc(C(F)(F)F)c(C(=O)C3C(=O)CCCC3=O)cc2cc1F [Compound 1.81, 2-[6-fluoro-7-(N-methylethylamino)-2-trifluoromethyl-[1,8]-naphthyridine-3-carbony]-cyclohexane-1,3-dione] | – | – | – | – | – | – | – | – | – | – | 100 | 100 | 70 | 100 | 100 | 90 | 80 | 70 | 90 | 80 |
| O=C1CCCC(=O)C1C(=O)c1cc2ccc(OC3CCCC3)nc2nc1C(F)(F)F [Compound 1.16] | – | – | – | – | – | – | – | – | – | – | 90 | 90 | 60 | 80 | 90 | 70 | 90 | 70 | 70 | 90 |
| Cc1cc(Cn2c(=O)ccc3cc(C(=O)C4C(=O)CCCC4=O)c(C(F)(F)F)nc32)no1 [Compound 2.1] | – | – | – | – | – | – | – | – | – | – | 90 | 90 | 80 | 90 | 90 | 80 | 90 | 90 | 100 | 90 |
| O=C1CCCC(=O)C1C(=O)c1cc2ccc(C(F)F)nc2nc1C(F)(F)F [Compound 1.12] | 100% | 100% | 90% | 100% | 100% | 100% | 100% | 100% | 60% | 100% | – | – | – | – | – | – | – | – | – | – |
| COC(C)c1ccc2cc(C(=O)C3C(=O)CCCC3=O)c(C(F)(F)F)nc2n1 (stereo not drawn) [Compound 1.63, 2-[7-(1-methoxyethyl)-2-trifluoromethyl-[1,8]-naphthyridine-3-carbony]-cyclohexane-1,3-dione] | – | – | – | – | – | – | – | – | – | – | 100 | 100 | 70 | 100 | 100 | 90 | 90 | 90 | 100 | 80 |
| COCc1nc2ncc(F)cc2cc1C(=O)C1C(=O)CCCC1=O [Compound 1.74, 2-[6-fluoro-2-methoxymethyl-[1,8]-naphthyridine-3-carbony]-cyclohexane-1,3-dione] | – | – | – | – | – | – | – | – | – | – | 100 | 100 | 70 | 100 | 100 | 80 | 80 | 40 | 90 | 80 |
| CCOc1nc2nc(C(F)(F)F)c(C(=O)C3C(=O)C4CCC(C4)C3=O)cc2cc1F (stereo not drawn) [Compound 3.4] | 100% | 100% | 70% | 100% | 100% | 80% | 90% | 70% | 70% | 90% | – | – | – | – | – | – | – | – | – | – |
